The test relates to 14-3-3. Description: Binding of p53 peptides to 14-3-3, isoform not given. Conditions: isoform not specified; wild-type p53CT tested up to 200 µM; pS392 by AUC.

Consider “WT TC (293–393): wild-type tetramerization plus C-terminal domains of p53 (293–393), semi-synthetic”, for which the “binding to 14-3-3 (in words)” value is “very weak binding”.

Values taken from article PMC2566891 (Nucleic Acids Research, 2008).
